Reference: patent US20260335446A1, “TETRAZINE-BASED TARGETING AGENTS FOR IN VIVO DELIVERY OF A PAYLOAD” (Tambo, Inc., priority 2023, published 2026)

Assay: LC-MS quantification of conversion of protodrug in presence of Compound 111 in rat plasma-EDTA
Conditions: FIG. 2, 37° C., Compound 111 100 μg/mL, protodrug 250 ng/mL
Description: Liquid chromatography-mass spectrometry (LC-MS) was used to quantify the conversion of Compound B protodrug to MMAE and Compound F to exatecan in the presence of Compound 111. Compound 111 (100 μg/mL) was added to rat plasma-EDTA and incubated at 37° C. The protodrugs, Compound B and Compound F, were added to the plasma with the final concentration of 250 ng/mL. At each time point, triplicate aliquots were transferred to a plate with various pH extraction conditions and precipitated with acetonitrile for Compound B/MMAE or methanol for Compound F/exatecan. LC-MS/MS analyzed the extracted samples with the instrument methods previously established for each analyte. The conversion percentage was calculated based on the initial concentration of protodrugs and the formation of exatecan and MMAE in mole/mL.

SMILES	conversion to MMAE after reaction with Compound 111	conversion to exatecan after reaction with Compound 111
CC[C@H](C)[C@@H]([C@@H](CC(=O)N1CCC[C@H]1[C@H](OC)[C@@H](C)C(=O)N[C@H](C)[C@@H](O)c1ccccc1)OC)N(C)C(=O)[C@@H](NC(=O)[C@H](C(C)C)N(C)C(=O)O[C@H]1/C=C/CC[C@@](C)(C(=O)N[C@@H](CC(=O)O)C(=O)O)CC1)C(C)C [Compound B]	rapidly converted	–
CC[C@@]1(O)C(=O)OCc2c1cc1n(c2=O)Cc2c-1nc1cc(F)c(C)c3c1c2[C@@H](NC(=O)O[C@H]1/C=C/CC[C@@](C)(C(=O)NCCOCCOCCOCCN(CCOCCOCCOCCC(=O)O)CCOCCOCCOCCC(=O)O)CC1)CC3 [Compound F]	–	rapidly converted

Assay: LCMS analysis of drug release by tetrazines (TCO-MMAE Compound B)
Conditions: tetrazine 20 μM, Compound B 10 μM, PBS
Description: A solution of each tetrazine (20 μM final concentration) in PBS is mixed with TCO-MMAE Compound B (10 μM final concentration). The solution is mixed thoroughly and an aliquot removed at the appropriate time for analysis by LCMS.

SMILES	% Compound B consumed (1 h) [%]
Cc1nnc(-c2ncccn2)nn1	100
Cc1nnc(-c2cn(C)cn2)nn1	74
Cc1nnc(-c2cocn2)nn1	42
Cc1nnc(-c2ccc(C(F)(F)F)c(CN)c2)nn1	100
Cc1nnc(-c2ccc(CN)c(C(F)(F)F)c2)nn1	100
Cc1nnc(-c2ccccn2)nn1	100
Cc1nnc(-n2cccn2)nn1	81
